Data as given in publication PMC6406907, “A H2AX–CARP-1 Interaction Regulates Apoptosis Signaling Following DNA Damage” (Cancers, 2019).
No end group written: not given here. HA = not defined here

Tested on: γH2AX
Test: Confocal immunofluorescence of γH2AX / peptide, MDA-MB-468
Type: cell-based, human
Method: Cells were plated onto chamber slides one day before treatment. Following treatment of cells with respective compounds, the adherent cells were fixed with 5% formaldehyde for 10 min and then washed with phosphate buffered saline (PBS). Samples were blocked (0.5% NP-40, 5% milk powder, 1% fetal bovine serum) for 30 min. After a single wash with PBS, cells were incubated with primary antibodies for 45 to 60 min. Coverslips were washed with PBS and then incubated with secondary antibodies for another 45 to 60 min. They were then washed with PBS and mounted with 0.1 μg/mL 4′,6′-diamidino-2-phenylindole (DAPI) containing mounting solution. For confocal imaging, cells were first fixed with PFA, then stained for CARP-1 by myc-tag antibodies (green), γH2AX antibodies (red), and DAPI (blue) for nuclear staining. Immunofluorescent or confocal images were taken using a Zeiss LSM 510 Meta NLO (63×).
Our next objective was to analyze the biological significance of the CARP-1–H2AX interaction in cells. […] Next, we measured activation of caspases as an apoptosis readout in cells expressing myc-His-tagged wild-type CARP-1 or CARP-1 (Δ600–650) proteins that were either untreated or treated with Adriamycin or CFM compounds as detailed in Section 2. We utilized a lower, 4–5 μM dose of Adriamycin or CFM compounds because a 10 μM Adriamycin dose caused interference in signal output/readout in this particular assay, likely due to background fluorescence that is emitted by higher dose of Adriamycin. Although Adriamycin has a maximum excitation and emission wavelength of 470 and 560 nm, respectively, we found significant fluorescence emission in cells treated with 10 μM Adriamycin at a 380-nm excitation wavelength. Moreover, since caspase activation precedes apoptotic cell death, we utilized a lower dose of Adriamycin to permit a robust measurement of optimal caspase activation in cells undergoing moderate apoptosis with lower/minimal interference by Adriamycin-induced fluorescence signals. […]

Row | Substance | nuclear presence of γH2AX (MDA-MB-468 expressing EGFP-H2AX (1–35) vs EGFP, Adriamycin-treated) | co-localization with γH2AX (6 μg/mL peptide, 72 h, confocal, insets top and middle rows of Figure 8C) | presence of γH2AX in Adriamycin-treated cells (MDA-MB-468 pre-incubated with 6 μg/mL peptide, 72 h, then Adriamycin, vs no peptide or scrambled peptide)
1 | EGFP-H2AX (1–35): EGFP-tagged fusion protein stably expressed in MDA-MB-468 and HeLa sublines (MSGRGKTGGKARAKAKSRSSRAGLQFPVGRVHRLL; also: EGFP fusion, end not given here; UniProt P16104 1-35, looked up, fragment) | increased nuclear presence of γH2AX | – | –
2 | His-TAT-HA-CARP-1 (636–650): His-TAT-HA-tagged CARP-1 (636–650) peptide, >95% purity, commercially synthesized ({His-TAT-HA}-PKTMKVNDLRKELES; reading uncertain; UniProt Q8IX12 636-650, looked up, fragment) | – | co-localization | increased presence of γH2AX
